≈ marks a conversion by molar mass, not a printed value.

The conditions of the data set: buffer; pH 7.4; 200.0 µM.
In the case of `COc1ccccc1NS(=O)(=O)c1cccc(C(=O)N2CCCC2)c1`, the solubility (kinetic) is above 54.1 µg/mL. For the molecule `Cc1cnc(NC(=O)C2CC(=O)N(c3ccc4c(c3)OCCO4)C2)s1` (stereo unspecified), the kinetic solubility amounted to 20.2 µg/mL (≈ 56.2 µM). Consider `CCC(=O)c1ccc(OCC(=O)NCc2ccccc2CN2CCCC2)cc1`, for which the solubility (kinetic) is above 57.1 µg/mL. The value for `CCCC12CN3CC(C)(CN(C1)C3c1ccc([N+](=O)[O-])o1)C2=O` (stereo unspecified) was above 47.9 µg/mL; that for `COC(=O)c1cn(C(=O)c2ccc(F)cc2)c2ccccc12` was below 0.6 µg/mL; that for `COC(=O)CCN(C(=O)c1ccc(Cl)c([N+](=O)[O-])c1)c1ccccn1` was above 54.6 µg/mL. The value for `O=C(O)c1c(NC(=O)N2CCOCC2)sc2c1CCCC2` was above 46.6 µg/mL. Under `O=C(COC(=O)/C=C/c1ccco1)Nc1cc(S(=O)(=O)N2CCOCC2)ccc1Cl` stands 2.7 µg/mL (≈ 5.94 µM); under `O=C(O)c1cn2c3c(ccc(Cl)c3c1=O)OCC2`, above 39.8 µg/mL. `O=C(O)c1ccc(NC(=S)NCc2ccccc2)cc1` returned a kinetic solubility above 43 µg/mL. Turning to `CC1CCN(C(=O)CSc2n[nH]c(-c3cccs3)n2)CC1`, the kinetic solubility is above 48.4 µg/mL. The molecule `O=S(=O)(NCCc1c[nH]c2ccccc12)c1ccccc1` registered a solubility (kinetic) above 45.1 µg/mL.

In turn, `Cc1ccc(N=C2C(=O)Nc3ccc(C)c(Br)c32)cc1` displayed a solubility (kinetic) of 32.6 µg/mL (≈ 99 µM).

`O=C(CN1C(=O)NC2(CCOc3ccccc32)C1=O)c1ccc(Cl)cc1` (stereo unspecified): the kinetic solubility amounted to 1.3 µg/mL (≈ 3.51 µM). This solubility kinetic is about 25-fold lower than that of the molecule before. Under `NS(=O)(=O)c1ccc(CCNC(=O)c2ccc(=O)[nH]c2)cc1` stands above 48.2 µg/mL. The value for `Cc1ccc(C(=O)C[n+]2cccc3cc(C)ccc32)cc1.[Br-]` was 43.8 µg/mL.

As for `O=C(N/N=C/c1c[nH]c2ccccc12)c1ccccc1O`, the solubility (kinetic) was above 41.9 µg/mL. `CCOc1nc(-c2ccccc2Cl)nc2ccccc12` registered a solubility (kinetic) of 1.4 µg/mL (≈ 4.92 µM). In the case of `O=C(CN1C(=O)CCC1=O)NC(=O)NC1CCCC1`, the solubility (kinetic) is above 40.1 µg/mL.

For `CCOC(=O)c1c(C)nc(C)c(C(=O)OCC)c1-c1ccco1`, the kinetic solubility was above 47.6 µg/mL. Under `CCC(OC(=O)CN1C(=O)c2ccccc2C1=O)C(=O)NC1CCCC1` (stereo unspecified) stands 52.1 µg/mL (≈ 145 µM); under `COCCNC(=S)Nc1ccccn1`, above 31.7 µg/mL. `NC(=S)Nc1cccc(F)c1` gave a kinetic solubility above 25.5 µg/mL. In turn, `O=C(CN1CCN(C(=O)c2ccccc2)CC1)Nc1ccccc1` displayed a kinetic solubility above 48.5 µg/mL. Under `CC1(C(=O)NC2CCCCC2)CCC(=O)N1Cc1ccc2c(c1)OCO2` (stereo unspecified) stands 44.4 µg/mL (≈ 124 µM); under `CCC(C(=O)Nc1ccc(N2CCOCC2)c(S(=O)(=O)Nc2ccccc2OC)c1)c1ccccc1` (stereo unspecified), 7.4 µg/mL (≈ 14.5 µM). The value for `OCCCNC(=S)Nc1ccc(Br)cc1Cl` was above 48.5 µg/mL. Under `CN(c1ccccc1)S(=O)(=O)c1ccc(Cl)nc1` stands 40.1 µg/mL (≈ 142 µM); under `COc1cccc2[nH]c3c(=O)n(CCCN4CCOCC4)cnc3c12`, above 51.4 µg/mL. Molecule `O=C(NC1CCCc2ccccc21)c1ccc(F)cc1F` (stereo unspecified) yielded a solubility (kinetic) of 10.9 µg/mL (≈ 37.9 µM). In the case of `O=C1NC(=O)N(Cc2ccccc2)C1=O`, the kinetic solubility is above 30.6 µg/mL. Under `COc1cccc(-c2nc(NCc3cccnc3)c3ccccc3n2)c1O` stands 0.3 µg/mL (≈ 0.837 µM); under `Cc1ccc(OCC(=O)OCC(=O)NC2CC2)cc1C`, above 41.6 µg/mL. Under `Cc1cc(C)c(C#N)c(N2CCN(c3ccccc3)CC2)n1` stands 3.8 µg/mL (≈ 13 µM). The value for `NS(=O)(=O)c1ccc(CCNCC(=O)NC2CC2)cc1` was 26.3 µg/mL (≈ 88.4 µM); that for `CCOC(=O)/C(C#N)=C/N1CCOCC1` was above 31.5 µg/mL; that for `O=C(COC(=O)c1ccc(F)cc1F)NCc1ccc2c(c1)OCO2` was 4.9 µg/mL (≈ 14 µM).

With `CCOC(=O)c1cc(S(=O)(=O)N2CCCC2)cn1C`, the solubility (kinetic) was found to be 22.4 µg/mL (≈ 78.2 µM).

`Cc1cccc(NC(=O)CNC(=O)c2ccccc2Cl)n1`: the kinetic solubility was above 45.6 µg/mL. Under `COc1ccccc1C/C(N)=N/OC(=O)c1ccc2c(c1)OCO2` stands above 49.2 µg/mL.

As to `c1ccc2[nH]c(CCCc3nc4ccccc4[nH]3)nc2c1`, the kinetic solubility stood at 29.7 µg/mL (≈ 107 µM).

Usually solubility (kinetic) stands for solubility judged after dilution from a stock solution rather than from solid.
